pKi: −log10 of the molar value.
Target: T1, Human Recombinant Matriptase 2 (Homo sapiens, UniProt Q8IU80)
T1 construct: made in house
T1 sequence (Q8IU80 1-811): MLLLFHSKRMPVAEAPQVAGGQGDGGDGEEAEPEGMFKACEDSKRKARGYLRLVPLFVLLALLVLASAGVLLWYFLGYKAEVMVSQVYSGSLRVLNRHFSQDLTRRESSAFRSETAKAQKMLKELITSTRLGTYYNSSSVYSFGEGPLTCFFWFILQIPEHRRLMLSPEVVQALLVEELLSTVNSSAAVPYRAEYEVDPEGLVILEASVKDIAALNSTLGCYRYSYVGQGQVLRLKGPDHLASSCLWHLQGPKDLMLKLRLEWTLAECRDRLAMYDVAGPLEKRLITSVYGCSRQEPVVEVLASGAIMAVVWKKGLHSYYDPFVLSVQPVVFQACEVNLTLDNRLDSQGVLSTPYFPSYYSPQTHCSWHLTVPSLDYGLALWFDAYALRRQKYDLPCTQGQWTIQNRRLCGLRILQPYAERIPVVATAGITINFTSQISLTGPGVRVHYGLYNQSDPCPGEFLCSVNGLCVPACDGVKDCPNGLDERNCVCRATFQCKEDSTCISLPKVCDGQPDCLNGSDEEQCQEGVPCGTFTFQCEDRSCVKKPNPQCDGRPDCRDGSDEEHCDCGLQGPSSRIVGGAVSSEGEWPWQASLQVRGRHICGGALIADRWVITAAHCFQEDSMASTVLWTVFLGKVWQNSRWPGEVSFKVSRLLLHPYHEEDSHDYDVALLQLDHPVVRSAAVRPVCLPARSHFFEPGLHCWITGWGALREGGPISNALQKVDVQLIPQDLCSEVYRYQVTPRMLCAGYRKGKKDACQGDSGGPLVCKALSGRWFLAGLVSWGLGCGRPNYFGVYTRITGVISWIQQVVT
Assay: Matriptase 2 inhibition, fluorescence based assay (Method I)
Assay type: biochemical
Settings: Table A; Ki of Matriptase-2 given as class symbols; read-out: Mat-2 Ki
Procedure, shortened: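 Fluorogenic readout (Ex 360/Em 480 nm) taken 60 min after adding 62 μM Boc-Gln-Ala-Arg-AMC, following 30-min enzyme–compound preincubation at 25 °C. Conditions: 3.5 nM in-house enzyme, pH 7.5 Tris/NaCl/gelatin buffer, 1% DMSO; percent inhibition versus concentration fitted by variable-slope sigmoidal regression.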

Compound | pKi
NCc1ccc2cc(C(=O)O)n(Cc3cc(NS(=O)(=O)CCCN4CCCC4)cc4ccccc34)c2n1 [Compound 232, 6-(aminomethyl)-1-({3-[3-(pyrrolidin-1-yl)-propanesulfonamido]-naphthalen-1-yl}methyl)-1H-pyrrolo[2,3-b]pyr-idine-2-carboxylic acid] | 6.30 to 7.00
NCc1ccc2cc(C(=O)O)n(Cc3cc(NS(=O)(=O)Cc4ccno4)cc4ccccc34)c2n1 [Compound 233, 6-(aminomethyl)-1-({3-[(1,2-oxazol-5-yl)-methanesulfonamido]-naphthalen-1-yl}methyl)-1H-pyrrolo[2,3-b]pyr-idine-2-carboxylic acid] | 6.30 to 7.00
COCCN1CCN(CCS(=O)(=O)Nc2cc(Cn3c(C(=O)O)cc4ccc(CN)nc43)c3ccccc3c2)CC1 [Compound 234, 6-(aminomethyl)-1-[(3-{2-[4-(2-methoxyethyl)-piperazin-1-yl]ethane-sulfonamido}naphthalen-1-yl)methyl]-1H-pyr-rolo[2,3-b]pyridine-2-carboxylic acid] | 6.30 to 7.00
CN1CCC[C@H]1CCS(=O)(=O)Nc1cc(Cn2c(C(=O)O)cc3ccc(CN)nc32)c2ccccc2c1 [Compound 235, 6-(aminomethyl)-1-[(3-{2-[(2S)-1-methylpyr-rolidin-2-yl]ethanesul-fonamido}naphthalen-1-yl)methyl]-1H-pyrrolo-[2,3-b]pyridine-2-car-boxylic acid] | 6.30 to 7.00
NCc1ccc2cc(C(=O)O)n(Cc3cc(NS(=O)(=O)Cc4ccco4)cc4ccccc34)c2n1 [Compound 236, 6-(aminomethyl)-1-({3-[(furan-2-yl)methane-sulfonamido]naphthalen-1-yl}methyl)-1H-pyr-rolo[2,3-b]pyridine-2-carboxylic acid] | 6.30 to 7.00
CN1CCC(CS(=O)(=O)Nc2cc(Cn3c(C(=O)O)cc4ccc(CN)nc43)c3ccccc3c2)CC1 [Compound 237, 6-(aminomethyl)-1-({3-[(1-methylpiperidin-4-yl)methanesulfonamido]-naphthalen-1-yl}methyl)-1H-pyrrolo[2,3-b]pyr-idine-2-carboxylic acid] | 6.30 to 7.00
Cc1cccc(CS(=O)(=O)Nc2cc(Cn3c(C(=O)O)cc4ccc(CN)nc43)c3ccccc3c2)c1 [Compound 238, 6-(aminomethyl)-1-({3-[(3-methylphenyl)meth-anesulfonamido]naph-thalen-1-yl}methyl)-1H-pyrrolo[2,3-b]pyridine-2-carboxylic acid] | 6.30 to 7.00
NCc1ccc2cc(C(=O)O)n(Cc3cc(NS(=O)(=O)Cc4cscn4)cc4ccccc34)c2n1 [Compound 239, 6-(aminomethyl)-1-({3-[(1,3-thiazol-4-yl)meth-anesulfonamido]naph-thalen-1-yl}methyl)-1H-pyrrolo[2,3-b]pyridine-2-carboxylic acid] | 6.30 to 7.00
NCc1ccc2cc(C(=O)O)n(Cc3cc(NS(=O)(=O)C4CCOCC4)cc4ccccc34)c2n1 [Compound 240, 6-(aminomethyl)-1-{[3-(oxane-4-sulfonamido)-naphthalen-1-yl]methyl}-1H-pyrrolo[2,3-b]pyr-idine-2-carboxylic acid] | 6.30 to 7.00
CCOC(=O)c1cc2ccc(CN)nc2n1Cc1cc(NS(=O)(=O)CC2CCNCC2)cc2ccccc12 [Compound 241, ethyl 6-(aminomethyl)-1-({3-[(piperidin-4-yl)-methanesulfonamido]-naphthalen-1-yl}methyl)-1H-pyrrolo[2,3-b]pyr-idine-2-carboxylate] | 6.30 to 7.00

The remaining lines, values ahead:

pKi | Compound
6.30 to 7.00 | NCc1ccc2cc(C(=O)O)n(Cc3cc(NS(=O)(=O)Cc4ccoc4)cc4ccccc34)c2n1 [Compound 220, 6-(aminomethyl)-1-({3-[(furan-3-yl)methane-sulfonamido]naphthalen-1-yl}methyl)-1H-pyr-rolo[2,3-b]pyridine-2-carboxylic acid]
6.30 to 7.00 | CN1CCC(COC(=O)c2cc3ccc(CN)nc3n2Cc2cc(NS(=O)(=O)Cc3cccc(C#N)c3)cc3ccccc23)CC1 [Compound 221, (1-methylpiperidin-4-yl)methyl 6-(aminometh-yl)-1-({3-[(3-cyanophen-yl)methanesulfonamido]-naphthalen-1-yl}methyl)-1H-pyrrolo[2,3-b]pyr-idine-2-carboxylate]
6.30 to 7.00 | NCc1ccc2cc(C(=O)O)n(Cc3cc(NS(=O)(=O)Cc4ccccn4)cc4ccccc34)c2n1 [Compound 222, 6-(aminomethyl)-1-({3-[(pyridin-2-yl)methane-sulfonamido]naphthalen-1-yl}methyl)-1H-pyr-rolo[2,3-b]pyridine-2-carboxylic acid]
6.30 to 7.00 | NCc1ccc2cc(C(=O)O)n(Cc3cc(NS(=O)(=O)CCC4CCNCC4)cc4ccccc34)c2n1 [Compound 223, 6-(aminomethyl)-1-({3-[2-(piperidin-4-yl)-ethanesulfonamido]-naphthalen-1-yl}meth-yl)-1H-pyrrolo[2,3-b]-pyridine-2-carboxylic acid]
6.30 to 7.00 | NCc1ccc2cc(C(=O)O)n(Cc3cc(NS(=O)(=O)Cc4ccccc4C(F)(F)F)cc4ccccc34)c2n1 [Compound 225, 6-(aminomethyl)-1-[(3-{[2-(trifluoromethyl)-phenyl]methanesulfon-amido}naphthalen-1-yl)methyl]-1H-pyrrolo-[2,3-b]pyridine-2-car-boxylic acid]
6.30 to 7.00 | NCc1ccc2cc(C(=O)O)n(Cc3cc(NS(=O)(=O)CCn4cnnn4)cc4ccccc34)c2n1 [Compound 226, 6-(aminomethyl)-1-({3-[2-(1H-1,2,3,4-tetrazol-1-yl)ethanesulfonamido]-naphthalen-1-yl}methyl)-1H-pyrrolo[2,3-b]pyr-idine-2-carboxylic acid]
6.30 to 7.00 | NCc1ccc2cc(C(=O)O)n(Cc3cc(NS(=O)(=O)Cc4ccccc4F)cc4ccccc34)c2n1 [Compound 227, 6-(aminomethyl)-1-({3-[(2-fluorophenyl)meth-anesulfonamido]naph-thalen-1-yl}methyl)-1H-pyrrolo[2,3-b]pyridine-2-carboxylic acid]
6.30 to 7.00 | NCc1ccc2cc(C(=O)O)n(Cc3cc(NS(=O)(=O)CCn4ccnn4)cc4ccccc34)c2n1 [Compound 228, 6-(aminomethyl)-1-({3-[2-(1H-1,2,3-triazol-1-yl)ethanesulfonamido]-naphthalen-1-yl}meth-yl)-1H-pyrrolo[2,3-b]-pyridine-2-carboxylic acid]
6.30 to 7.00 | NCc1ccc2cc(C(=O)O)n(Cc3cc(NS(=O)(=O)Cc4cccc(F)c4)cc4ccccc34)c2n1 [Compound 229, 6-(aminomethyl)-1-({3-[(3-fluorophenyl)meth-anesulfonamido]naph-thalen-1-yl}methyl)-1H-pyrrolo[2,3-b]pyridine-2-carboxylic acid]
6.30 to 7.00 | NCc1ccc2cc(C(=O)O)n(Cc3cc(NS(=O)(=O)CCc4ccccc4)cc4ccccc34)c2n1 [Compound 230, 6-(aminomethyl)-1-{[3-(2-phenylethanesulfon-amido)naphthalen-1-yl]-methyl}-1H-pyrrolo[2,3-b]pyridine-2-carboxylic acid]
6.30 to 7.00 | NCc1ccc2cc(C(=O)O)n(Cc3cc(NS(=O)(=O)Cc4cncnc4)cc4ccccc34)c2n1 [Compound 231, 6-(aminomethyl)-1-({3-[(pyrimidin-5-yl)methane-sulfonamido]naphthalen-1-yl}methyl)-1H-pyr-rolo[2,3-b]pyridine-2-carboxylic acid]
